Values after ≈ are worked out from the molar mass of the structure shown. Where two headings read alike, the source gives them in different places.
Assays:
[1] = tested on: HHV-2 E194; experiment: Viral CPE inhibition assay (neutral red), HHV-2 E194 wild type; type: cell-based; settings: for IC50: 96 h, HHV-2 E194 (WT), Vero-76 cells, neutral red, day 4 post-infection; for SI (Selectivity Index CC50/IC50): HHV-2 E194
Description: (§1) Viral CPE inhibition assay to determine KPB-100 anti-HHV-2 TK-mutant activity: HHV-2 thymidine kinase mutant (TK-minus; TK-), CI-10161 was a patient isolate obtained on 11 November 1986 from Bruce Ronnie at Burrows Welcome. It was amplified one time in MA-104 cells. HHV-2 TK- CI-1253 (18 February 1991) was a patient isolate obtained on 05 February 1992 from Bruce Ronnie at the department of medicine at the University of British Colombia and amplified one time in Vero cells. HHV-2 (E194) was the standard wild-type E194 strain from the USU archives. KPB-100 was suspended in water (100 μg/mL). It was diluted 1/2 in minimum essential medium (MEM) solution, then diluted down further in half-log dilutions in MEM solution with 50 μg/mL gentamicin and 2% foetal bovine serum. Each dilution was added to 5 wells of a 96-well plate with an overnight monolayer of 80–100% confluent Vero-76 cells. Acyclovir and cidofovir were tested in parallel as controls. Three wells of each dilution were then infected with virus, and two wells remained uninfected as toxicity controls. The MOI was approximated 0.001 for CI-1253, 0.002 for CI-10161 and 0.017 for E194. When untreated virus control wells reached near complete cytopathic effect (CPE), which was day-four post-infection in each case, plates were stained with neutral red dye (which measures cell viability, thus can be used for quantifying the vitality of both virus-infected and uninfected, drug-treated cell cultures) for approximately 2 h, then supernatant dye was removed and the incorporated dye was extracted in 50:50 Sorensen citrate buffer/ethanol, then read on a spectrophotometer at 540 nm. Optical density (OD) values were normalized based on cell and virus controls, then IC50, 50% cytotoxic concentration (CC50) values, and Selectivity Index (SI) were calculated by regression analysis.

[2] = tested on: HHV-2 TK- 1253; experiment: Viral CPE inhibition assay (neutral red), HHV-2 TK- CI-1253; type: cell-based; settings: for IC50: 96 h, HHV-2 TK- 1253, Vero-76 cells, neutral red, day 4 post-infection; for SI (Selectivity Index CC50/IC50): HHV-2 TK- 1253
Description: as §1

[3] = tested on: HHV-2 TK- 10161; experiment: Viral CPE inhibition assay (neutral red), HHV-2 TK- CI-10161; type: cell-based; settings: for IC50: 96 h, HHV-2 TK- 10161, Vero-76 cells, neutral red, day 4 post-infection; for SI (Selectivity Index CC50/IC50): HHV-2 TK- 10161
Description: as §1

[4] = Cytotoxicity in uninfected cultures (neutral red) run with the CPE inhibition assay; type: cell-based; settings: African green monkey, uninfected Vero-76 cells, run in parallel with each virus, read-out: CC50 (50% cytotoxic concentration of compound in uninfected cultures)
Description: as §1

[5] = tested on: HHV-2 TK-; experiment: Viral CPE inhibition assay, HHV-2 TK- (mean of the two TK- isolates); type: cell-based
Description: as §1

[6] = tested on: VACV (WR); experiment: microbe, parasite or virus in culture; type: cell-based; settings: Orthopoxvirus vaccinia, Vero 76, 72 h
[7] = tested on: HHV-2, strain G (ATCC VR-734); experiment: Standard plaque reduction assay against HHV-2 WT; type: cell-based
[8] = tested on: HHV-1 (v2424); experiment: HHV-1 virus yield reduction (VYR) assay; type: cell-based; settings: Vero 76, read-out: IC90 (concentration reducing virus yield by 1 log10 or 90%)
[9] = tested on: VACV WR-GFP virus (VV.NP-S-EGFP); experiment: microbe, parasite or virus in culture; type: cell-based, Vaccinia virus; settings: for IC50: HeLa, 24 h, read-out: IC50 virus spread inhibition
[10] = tested on: VACV WR-GFP; type: cell-based, Vaccinia virus
[11] = tested on: Vero-76 cells; settings: African green monkey
[12] = tested on: C1008 cells; experiment: Cytotoxicity measured by CPE in plaque reduction; settings: 25 μg/mL
[13] = Vero 76, mean over TK- isolates 1253 and 10161, CPE inhibition, Vero-76 cells, read-out: mean IC50 against HHV-2 TK-

Row | SMILES | IC50 [1] [mg/L] | SI (Selectivity Index CC50/IC50) [1] | IC50 [2] [mg/L] | SI (Selectivity Index CC50/IC50) [2] | IC50 [3] [mg/L] | SI (Selectivity Index CC50/IC50) [3] | CC50 at 4 days [4] [mg/L] | IC50 [5, 13] [mg/L] | IC50 [6] [mg/L] | IC50 [7] [mg/L] | IC90 [8] [mg/L] | IC50 ([9]; Orthopoxvirus vaccinia) [mg/L] | inhibition at 4 µg/mL ([9]; Orthopoxvirus vaccinia, 4 μg/mL, read-out: inhibition of virus spread) [%] | anti-VACV activity in virus yield inhibition assay (in words) [10] | IC50 ([5]; Vero 76, read-out: mean IC50 against HHV-2 TK-, mean over TK- isolates 1253 and 10161, CPE inhibition, Vero-76 cells) [mg/L] | mean IC50 against HHV-2 TK- ([5]; mean over TK- isolates 1253 and 10161, CPE inhibition, Vero-76 cells) [mg/L] | toxicity estimated visually [11] [%] | cytotoxicity (cytopathic effect) [12] [%] | IC50 virus spread inhibition [9] [mg/L]
1 | Nc1nc2c(ncn2COCCO)c(=O)[nH]1 [Acyclovir, acyclovir] | 0.49 (≈ 2.18 µM) | >204 | 9.3 (≈ 41.3 µM) | >11 | 15 (≈ 66.6 µM) | >6.7 | > 100 | 12.2 (≈ 54.2 µM) |  |  |  |  |  |  |  |  |  |  | 
2 | Nc1ccn(C[C@@H](CO)OCP(=O)(O)O)c(=O)n1 [Cidofovir, cidofovir] | 4.3 (≈ 15.4 µM) | >23 | 0.22 (≈ 0.788 µM) | >450 | 1.2 (≈ 4.3 µM) | >83 | > 100 | 0.71 (≈ 2.54 µM) | 9.7 (≈ 34.7 µM) |  |  |  |  |  |  |  |  |  | 
3 | COc1cc([C@@H]2c3cc(OC)c(OC)cc3C[C@H](CO)[C@H]2CO[C@@H]2OC[C@@H](O)[C@H](O)[C@H]2O)ccc1O [KPB-100, scaphopetalone] | 5.4 (≈ 10.7 µM) | >4.6 | 4.6 (≈ 9.08 µM) | >5.4 | 4.5 (≈ 8.88 µM) | >5.6 | > 25 |  | 3.1 (≈ 6.12 µM) | 2.5 (≈ 4.94 µM) | 3 (≈ 5.92 µM) | 1.63 (≈ 3.22 µM) | ~100 | exhibited anti-VACV activities | 4.5 (≈ 8.88 µM) | 4.55 | 20 | < 20 | 
4 | COc1cc(O)cc(O[C@@H]2O[C@H](COC(=O)c3cc(OC)c(O)c(OC)c3)[C@@H](O)[C@H](O)[C@H]2O)c1 [KPB-200] |  |  |  |  |  |  |  |  | 7.4 (≈ 15.3 µM) | 2.9 (≈ 6.01 µM) |  | 13.2 (≈ 27.4 µM) |  | exhibited anti-VACV activities |  |  |  | < 20 | 13.19 (≈ 27.3 µM)
